Results on 76 compounds are retold here after the RepoRT retention time repository (doi:10.1021/es4044374).

The nature of this data set: RP, Waters XBridge C18, 50 × 2.1 mm, 3.5 µm, 30 °C, 0.2 mL/min, estimated dead time 0.55 min; A: water + 0.1% formic acid, pH 3; B: methanol + 0.1% formic acid, pH 3; gradient (min/%B) 0/10 4/50 17/95 25/95 25.1/10 30/10. As to conditions: stereoisomer not certain.

With `Cc1cc(Cl)ccc1OC(C)C(=O)O` (stereo unspecified) [Mecoprop], the LC retention time is 10.8 min.

For `CC(C)(Oc1ccc(C(=O)c2ccc(Cl)cc2)cc1)C(=O)O` [Fenofibric acid], the LC retention time was 12.6 min. Take `CCNC(=O)NC(=O)C(C#N)=NOC` [Cymoxanil]: the LC retention time was 5.6 min. `O=C(O)C(F)(F)C(F)(F)C(F)(F)C(F)(F)C(F)(F)C(F)(F)C(F)(F)F` [Perfluorooctanoic acid]: the LC retention time is 12.6 min. `CC(C)OC(=O)C(C)(C)Oc1ccc(C(=O)c2ccc(Cl)cc2)cc1` [Fenofibrate]: the LC retention time was 15.7 min. The figure for `CCCN(CCC)C(=O)SCc1ccccc1` [Prosulfocarb] is 14.4 min; for `N#Cc1cc(I)c(O)c(I)c1` [Ioxynil] it is 9.3 min; for `CCC1OC(=O)CC(O)C(C)C(OC2OC(C)C(OC3CC(C)(O)C(O)C(C)O3)C(N(C)C)C2O)C(CC=O)CC(C)C(=O)C=CC(C)=CC1COC1OC(C)C(O)C(OC)C1OC` (stereo unspecified) [Tylosin] it is 8.1 min. Consider `N#Cc1nn(-c2c(Cl)cc(C(F)(F)F)cc2Cl)c(N)c1S(=O)C(F)(F)F` (stereo unspecified) [Fipronil], for which the LC retention time was 12.6 min.

Regarding `CNC(=O)Oc1cc(C)c(S(C)=O)c(C)c1` (stereo unspecified) [Methiocarb-sulfoxide], the LC retention time was 4.9 min.

On to `COCCN(C(=O)CCl)c1c(C)cccc1C` [Dimethachlor], for which the LC retention time was 9.1 min.

With `CN(C)CCC=C1c2ccccc2CCc2ccccc21` [Amitriptyline], the LC retention time is 8.6 min. To `O=C(O)C(F)(F)C(F)(F)C(F)(F)C(F)(F)F` [Perfluoropentanoic acid] belongs 7.3 min; to `CC(C)(C)C(=O)C(Oc1ccc(Cl)cc1)n1ccnc1` (stereo unspecified) [Climbazol], 8.1 min; to `CCc1cc(C)cc(CC)c1-c1c(OC(=O)C(C)(C)C)n2n(c1=O)CCOCC2` [Pinoxaden], 13.7 min. Take `Cc1cc(NS(=O)(=O)c2ccc(N)cc2)no1` [Sulfamethoxazole]: the LC retention time is 4.6 min.

`CCCCC(=O)N(Cc1ccc(-c2ccccc2-c2nn[nH]n2)cc1)C(C(=O)O)C(C)C` (stereo unspecified) [Valsartan]: the LC retention time was 11.2 min. `CCNc1nc(Cl)nc(NC(C)(C)C#N)n1` [Cyanazine]: the LC retention time is 6.6 min. With `CCC(CC)OC1C=C(C(=O)O)CC(N)C1NC(C)=O` (stereo unspecified) [Oseltamivir carboxylate], the LC retention time is 5.1 min.

As for `c1ccc(CN2CCNCC2)cc1` [1-Benzylpiperazine], the LC retention time was 1.2 min. `CC12C=CC(=O)C=C1CCC1C2C(O)CC2(C)C1CCC2(O)C(=O)CO` (stereo unspecified) [Prednisolone]: the LC retention time is 8 min. For `CN(C)C(=N)N=C(N)N` [Metformin], the LC retention time is 0.8 min. As for `O=C(Nc1ccc(F)cc1F)c1cccnc1Oc1cccc(C(F)(F)F)c1` [Diflufenican], the LC retention time was 14.4 min. With `O=C(O)C=C(F)C(F)(F)C(F)(F)C(F)(F)C(F)(F)C(F)(F)F` [6:2 fluorotelomer unsaturated carboxylic acid], the LC retention time was 13.6 min. In the case of `O=C1NCCN1Cc1ccc(Cl)nc1` [Imidacloprid-urea], the LC retention time was 4.6 min.

For the compound `Nc1nc2ccccc2[nH]1` [2-Aminobenzimidazole], the LC retention time was 2.7 min. With `O=P(O)(O)OCCC(F)(F)C(F)(F)C(F)(F)C(F)(F)C(F)(F)C(F)(F)F` [Perfluorooctyl phosphate], the LC retention time was 12.1 min. To `CC(C)c1c(C(=O)Nc2ccccc2)c(-c2ccccc2)c(-c2ccc(F)cc2)n1CCC(O)CC(O)CC(=O)O` (stereo unspecified) [Atorvastatin] belongs 12.4 min; to `CC(=O)NCCCS(=O)(=O)O` [Acamprosate], 1 min; to `O=P(O)(OCCC(F)(F)C(F)(F)C(F)(F)C(F)(F)C(F)(F)C(F)(F)F)OCCC(F)(F)C(F)(F)C(F)(F)C(F)(F)C(F)(F)C(F)(F)F` [Bisperfluorooctyl phosphate], 18.1 min.

`CCc1cccc(C)c1N1C(=O)COCC1C` (stereo unspecified) [Metolachlor morpholinone]: the LC retention time was 8.2 min. The figure for `CC(C)Nc1nc(N)nc(Cl)n1` [Atrazine-desethyl] is 5.6 min; for `CCNc1nc(Cl)nc(NC(C)C)n1` [Atrazine] it is 8.3 min; for `NC(CC(=O)N1CCn2c(nnc2C(F)(F)F)C1)Cc1cc(F)c(F)cc1F` (stereo unspecified) [Sitagliptin] it is 5.2 min.

In the case of `O=C1CC(C(=O)O)CC(=O)C1=C(O)C1CC1` (stereo unspecified) [Trinexapac], the LC retention time was 6.9 min. For `Cc1cccc(C)c1N(Cn1cccn1)C(=O)CS(=O)(=O)O` [Metazachlor ESA], the LC retention time was 5.5 min. As for `CCCCC(C#N)(Cn1cncn1)c1ccc(Cl)cc1` (stereo unspecified) [Myclobutanil], the LC retention time was 11.2 min.

With `Cc1cc(=O)n(-c2ccccc2)n1C` [Antipyrine], the LC retention time is 4.6 min. For `CC(CN(C)C)CN1c2ccccc2CCc2ccccc21` (stereo unspecified) [Trimipramine], the LC retention time is 8.7 min. For the compound `CCS(=O)(=O)c1cccnc1S(=O)(=O)NC(=O)Nc1nc(OC)cc(OC)n1` [Rimsulfuron], the LC retention time is 7.9 min.

Consider `CCOCN(C(=O)CCl)c1c(C)cccc1CC` [Acetochlor], for which the LC retention time was 11.7 min. For `Cc1ccc(NC(=O)N(C)C)cc1Cl` [Chlortoluron], the LC retention time is 8.2 min. Consider `CN(C(=O)CO)c1c(I)c(C(=O)NCC(O)CO)c(I)c(C(=O)NCC(O)CO)c1I` (stereo unspecified) [Iomeprol], for which the LC retention time was 1.6 min. `NC(=O)N1c2ccccc2C=Cc2ccccc21` [Carbamazepine]: the LC retention time is 7.8 min.

For the compound `CCNc1nc(NC(C)(C)C)nc(OC)n1` [Terbumeton], the LC retention time was 6.7 min. The figure for `N#Cc1c[nH]cc1-c1cccc2c1OC(F)(F)O2` [Fludioxonil] is 10.7 min; for `CCOP(=O)(OCC)Oc1cc(C)nc(C(C)C)n1` [Diazoxon] it is 9.5 min; for `CCNc1nc(Cl)nc(NC(C)CC)n1` (stereo unspecified) [Sebuthylazine] it is 9.8 min. To `CCN(CC)CC(=O)Nc1c(C)cccc1C` [Lidocaine] belongs 4.2 min; to `CCc1cccc(C)c1N(C(=O)CCl)C(C)COC` (stereo unspecified) [Metolachlor], 11.8 min; to `CC(O)(CS(=O)(=O)c1ccc(F)cc1)C(=O)Nc1ccc(C#N)c(C(F)(F)F)c1` (stereo unspecified) [Bicalutamide], 9.9 min.

As for `O=C1NS(=O)(=O)c2ccccc21` [Saccharin], the LC retention time is 2.5 min.

Regarding `CCCCc1oc2ccc(NS(C)(=O)=O)cc2c1C(=O)c1ccc(OCCCN(CCCC)CCCC)cc1` [Dronedarone], the LC retention time is 11.5 min. The figure for `O=c1[nH]cc(F)c(=O)[nH]1` [5-Fluorouracil] is 1 min; for `CCNc1nc(NC(C)(C)C)nc(SC)n1` [Terbutryn] it is 8.5 min; for `CCN(CC(=O)O)S(=O)(=O)C(F)(F)C(F)(F)C(F)(F)C(F)(F)C(F)(F)C(F)(F)C(F)(F)C(F)(F)F` [N-Ethylperfluorooctane sulfonamidoacetic acid] it is 16.9 min. Consider `COC(=O)c1ccccc1S(=O)(=O)NC(=O)Nc1nc(C)nc(OC)n1` [Metsulfuron-methyl], for which the LC retention time is 7.1 min.

For `Cc1cccc(Nc2ccccc2C(=O)O)c1C` [Mefenamic acid], the LC retention time was 14.5 min. For the compound `CC(C)c1nc(CN(C)C(=O)NC(C(=O)NC(Cc2ccccc2)CC(O)C(Cc2ccccc2)NC(=O)OCc2cncs2)C(C)C)cs1` (stereo unspecified) [Ritonavir], the LC retention time was 13.6 min.

Consider `CNC(C)C(O)c1ccccc1` (stereo unspecified) [Ephedrine], for which the LC retention time is 2.9 min. As to `Cc1c(NC=O)c(=O)n(-c2ccccc2)n1C` [4-Formylaminoantipyrine], the LC retention time was 3.7 min.

Take `CSc1nc(NC2CC2)nc(NC(C)(C)C)n1` [Irgarol]: the LC retention time was 9.2 min. With `CCOCCN(C(=O)CCl)C(=C(C)C)c1ccccc1` [Pethoxamide], the LC retention time was 11.5 min. Regarding `CS(=O)(=O)c1ccc(C(=O)C2C(=O)CCCC2=O)c([N+](=O)[O-])c1` [Mesotrione], the LC retention time was 6.2 min. As to `CNC(=C[N+](=O)[O-])NCCSCc1ccc(CN(C)C)o1` [Ranitidine], the LC retention time was 1.9 min. On to `Cc1nc(N(C)C)nc(OC(=O)N(C)C)c1C` [Pirimicarb], for which the LC retention time was 5 min. The figure for `CCCN(CC)CC1COC2(CCC(C(C)(C)C)CC2)O1` (stereo unspecified) [Spiroxamine] is 10.1 min; for `CC=C1N(C)C(C)CC1(c1ccccc1)c1ccccc1` (stereo unspecified) [EDDP] it is 6.5 min.

As to `CCNc1nc(NCC)[nH]c(=O)n1` [Simazine-2-hydroxy], the LC retention time is 3.5 min. As for `C1=Cc2ccccc2Nc2ccccc21` [Iminostilbene], the LC retention time is 11 min. `O=c1ccn(C2OC(CO)C(O)C2(F)F)c(=O)[nH]1` (stereo unspecified) [2',2'-Difluoro-2'-deoxyuridine]: the LC retention time is 1.7 min. Regarding `CC1CC2C3CCC4=CC(=O)C=CC4(C)C3(F)C(O)CC2(C)C1(O)C(=O)CO` (stereo unspecified) [Dexamethasone], the LC retention time is 9.5 min.

In the case of `CCc1ccc(C(=O)NN(C(=O)c2cc(C)cc(C)c2)C(C)(C)C)cc1` [Tebufenozide], the LC retention time is 12.4 min. In the case of `CCNS(=O)(=O)C(F)(F)C(F)(F)C(F)(F)C(F)(F)C(F)(F)C(F)(F)C(F)(F)C(F)(F)F` [N-Ethylperfluoroctansulfonamid (N-EtFOSA)], the LC retention time was 17.1 min. On to `CC(=O)Nc1ccc(S(=O)(=O)Nc2cc(C)on2)cc1` [N4-Acetylsulfamethoxazole], for which the LC retention time was 5.5 min. `COCC(C)N(C(=O)CS(=O)(=O)O)c1c(C)csc1C` (stereo unspecified) [Dimethenamide ESA]: the LC retention time was 6.7 min.
